Values quoted from earlier work as cited in publication PMC8352932, “Targeted activity of the small molecule kinase inhibitor Pz-1 towards RET and TRK kinases” (Scientific Reports, 2021).
Several values for one entry are separate records, joined by “and”; a condition that tells them apart may be missing. Equal values may be shown once.

What was measured:
Conditions in all cases: read-out: cell proliferation IC50
KIF5B-RET Ba/F3 cells = test system: KIF5B-RET Ba/F3 cells
TEL-TRKA Ba/F3 cells = test system: TEL-TRKA Ba/F3 cells
MPRIP-TRKA Ba/F3 cells = test system: MPRIP-TRKA Ba/F3 cells; parameters: method as in PMID 24162815

Row | Compound | IC50 (KIF5B-RET Ba/F3 cells) | also measured
1 | COc1cc2nccc(Oc3ccc(NC(=O)C4(C(=O)Nc5ccc(F)cc5)CC4)cc3)c2cc1OC [cabozantinib] | 341 nM | 
2 | CN1CCN(c2ccc(C(=O)Nc3n[nH]c4ccc(Cc5cc(F)cc(F)c5)cc34)c(NC3CCOCC3)c2)CC1 [entrectinib] |  | IC50 (TEL-TRKA Ba/F3 cells): 2.8 nM
3 | O=C(Nc1cnn2ccc(N3CCC[C@@H]3c3cc(F)ccc3F)nc12)N1CC[C@H](O)C1 [larotrectinib] |  | IC50 (MPRIP-TRKA Ba/F3 cells): 8 nM
4 | CO[C@]1(C(=O)N[C@@H](C)c2ccc(-n3cc(F)cn3)nc2)CC[C@H](c2nc(C)cc(Nc3cc(C)[nH]n3)n2)CC1 [pralsetinib] | 9.7 nM and 16.5 nM | 
5 | COc1ccc(CN2C3CC2CN(c2ccc(-c4cc(OCC(C)(C)O)cn5ncc(C#N)c45)cn2)C3)cn1 [selpercatinib] | 8 nM | 
